Measured values: US6737383B1, “Herbicidal oxadiazolidines” (priority 1999, dated 2004)

Columns and labels:
[1] = system: smallflower flatsedge; test: Test B flood test smallflower flatsedge; assay type: in vivo, Cyperus difformis
In short: (§1)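 Plants were grown to the 2-leaf stage before treatment with test chemical, then held in a greenhouse for twelve to sixteen days. Injury was visually rated against untreated controls on a 0–10 scale, where 0 is no effect and 10 is complete control.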

[2] = system: soybean; test: Test B pre/postemergence soybean; assay type: in vivo, Glycine max; details: for Plant response rating, Soybean: scale of 0 to 10 where 0 is no effect and 10 is complete control
In short: (§2)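 Response is a visual 0-to-10 score relative to untreated plants, where 0 means no effect and 10 means complete control, taken twelve to sixteen days after application. Treatments went onto soil at planting and onto foliage of 1- to 4-leaf plants, using a surfactant-containing non-phytotoxic solvent.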

[3] = system: bedstraw; test: Test B pre/postemergence bedstraw; assay type: in vivo, Galium aparine; details: Postemergence
In short: as §2

[4] = system: crabgrass; test: Test B pre/postemergence crabgrass; assay type: in vivo, Digitaria sanguinalis
In short: as §2

[5] = system: blackgrass; test: Test B pre/postemergence blackgrass; assay type: in vivo, Alopecurus myosuroides
In short: as §2

[6] = system: duck salad; test: Test B flood test duck salad; assay type: in vivo, Heteranthera limosa
In short: as §1

[7] = system: purple nutsedge; test: Test B pre/postemergence purple nutsedge; assay type: in vivo, Cyperus rotundus; details: for Plant response rating, Nutsedge: scale of 0 to 10 where 0 is no effect and 10 is complete control
In short: as §2

[8] = system: wild oat; test: Test B pre/postemergence wild oat; assay type: in vivo, Avena fatua; details: for Plant response rating, Wild oats: scale of 0 to 10 where 0 is no effect and 10 is complete control
In short: as §2

[9] = system: corn; test: Test B pre/postemergence corn; assay type: in vivo, Zea mays
In short: as §2

[10] = system: giant foxtail; test: Test B pre/postemergence giant foxtail; assay type: in vivo, Setaria faberii
In short: as §2

[11] = system: wheat; test: Test B pre/postemergence wheat; assay type: in vivo, Triticum aestivum; details: for Plant response rating, Wheat: scale of 0 to 10 where 0 is no effect and 10 is complete control
In short: as §2

[12] = system: surinam grass; test: Test B pre/postemergence surinam grass; assay type: in vivo, Brachiaria decumbens
In short: as §2

[13] = system: rice; test: Test B flood test rice; assay type: in vivo, Oryza sativa
In short: as §1

[14] = system: morningglory; test: Test B pre/postemergence morningglory; assay type: in vivo, Ipomoea hederacea; details: for Plant response rating, Morningglory: scale of 0 to 10 where 0 is no effect and 10 is complete control
In short: as §2

[15] = system: pigweed; test: Test B pre/postemergence pigweed; assay type: in vivo, Amaranthus retroflexus; details: for Plant response rating, Redroot pigweed: scale of 0 to 10 where 0 is no effect and 10 is complete control
In short: as §2

[16] = system: velvetleaf; test: Test B pre/postemergence velvetleaf; assay type: in vivo, Abutilon theophrasti; details: for Plant response rating, Velvetleaf: scale of 0 to 10 where 0 is no effect and 10 is complete control
In short: as §2

[17] = Rate 62 g/ha, flood test species, Pre-emergence, visual evaluation after twelve to sixteen days
[18] = Rate 125 g/ha, under heading Pre-emergence, flood test species, visual evaluation after twelve to sixteen days
[19] = Rate 250 g/ha, Pre-emergence (flood test species), scale 0 to 10, 0 is no effect, 10 is complete control
[20] = Rate 500 g/ha, Pre-emergence, flood test species, scale 0 to 10 (0 no effect, 10 complete control)
[21] = Postemergence, Rate 250 g/ha, scale 0 to 10
[22] = Preemergence, Rate 250 g/ha, scale 0 to 10, 0 is no effect, 10 is complete control
[23] = Preemergence, Rate 500 g/ha, scale 0 to 10, 0 is no effect, 10 is complete control
[24] = Rate 62 g/ha, Postemergence, scale 0 to 10 (0 no effect, 10 complete control)
[25] = Rate 125 g/ha, Postemergence, scale 0 to 10, 0 is no effect, 10 is complete control
[26] = Postemergence, Rate 500 g/ha, scale of 0 to 10 where 0 is no effect and 10 is complete control
[27] = Preemergence, Rate 62 g/ha, scale of 0 to 10 where 0 is no effect and 10 is complete control
[28] = Preemergence, Rate 125 g/ha, scale of 0 to 10 where 0 is no effect and 10 is complete control

CC(C)N(C(=O)n1oc(=O)n(CCCl)c1=O)c1ccccc1 [Compound 469]
Plant response rating, S. Flatsedge (0 to 10 scale, 0 is no effect, 10 is complete control) [1, 17]: 0 | S. Flatsedge plant response rating (0 to 10 scale, 0 is no effect, 10 is complete control) [1, 18]: 0 | S. Flatsedge plant response rating [1, 19]: 0 | S. Flatsedge plant response rating [1, 20]: 0 | Soybean plant response rating [2, 21]: 4 | Plant response rating, Soybean ([2]; Preemergence, Rate 62 g/ha): 0 | Plant response rating, Soybean ([2]; Preemergence, Rate 125 g/ha): 0 | Soybean plant response rating [2, 22]: 0 | Soybean plant response rating [2, 23]: 2 | Soybean plant response rating [2, 24]: 0 | Soybean plant response rating [2, 25]: 1 | Bedstraw plant response rating ([3]; Rate 250 g/ha, scale 0 to 10): 6 | Bedstraw plant response rating ([3]; Rate 500 g/ha, scale of 0 to 10 where 0 is no effect and 10 is complete control): 6 | Bedstraw plant response rating ([3]; Rate 62 g/ha, scale 0 to 10 (0 no effect, 10 complete control)): 0 | Crabgrass plant response rating [4, 21]: 9 | Crabgrass plant response rating [4, 26]: 9 | Plant response rating, Crabgrass [4, 27]: 9 | Plant response rating, Crabgrass [4, 28]: 10 | Crabgrass plant response rating [4, 22]: 10 | Crabgrass plant response rating [4, 23]: 10 | Crabgrass plant response rating [4, 24]: 3 | Crabgrass plant response rating [4, 25]: 6 | Blackgrass plant response rating [5, 21]: 9 | Blackgrass plant response rating [5, 26]: 9 | Plant response rating, Blackgrass [5, 27]: 6 | Plant response rating, Blackgrass [5, 28]: 8 | Blackgrass plant response rating [5, 22]: 9 | Blackgrass plant response rating [5, 23]: 10 | Blackgrass plant response rating [5, 24]: 7 | Blackgrass plant response rating [5, 25]: 7 | Plant response rating, Ducksalad (0 to 10 scale, 0 is no effect, 10 is complete control) [6, 17]: 0 | Ducksalad plant response rating (0 to 10 scale, 0 is no effect, 10 is complete control) [6, 18]: 0 | Ducksalad plant response rating [6, 19]: 0 | Ducksalad plant response rating [6, 20]: 0 | Nutsedge plant response rating [7, 21]: 0 | Plant response rating, Nutsedge ([7]; Preemergence, Rate 62 g/ha): 0 | Plant response rating, Nutsedge ([7]; Preemergence, Rate 125 g/ha): 0 | Nutsedge plant response rating [7, 22]: 0 | Nutsedge plant response rating [7, 24]: 0 | Nutsedge plant response rating [7, 25]: 0 | Wild oats plant response rating [8, 21]: 3 | Plant response rating, Wild oats ([8]; Preemergence, Rate 62 g/ha): 7 | Plant response rating, Wild oats ([8]; Preemergence, Rate 125 g/ha): 7 | Wild oats plant response rating [8, 22]: 10 | Wild oats plant response rating [8, 23]: 10 | Wild oats plant response rating [8, 24]: 0 | Corn plant response rating [9, 21]: 2 | Corn plant response rating [9, 26]: 4 | Plant response rating, Corn [9, 27]: 0 | Plant response rating, Corn [9, 28]: 2 | Corn plant response rating [9, 22]: 8 | Corn plant response rating [9, 23]: 9 | Corn plant response rating [9, 24]: 0 | Corn plant response rating [9, 25]: 0 | Giant foxtail plant response rating [10, 21]: 9 | Giant foxtail plant response rating [10, 26]: 9 | Plant response rating, Giant foxtail [10, 27]: 9 | Plant response rating, Giant foxtail [10, 28]: 10 | Giant foxtail plant response rating [10, 22]: 10 | Giant foxtail plant response rating [10, 23]: 10 | Giant foxtail plant response rating [10, 24]: 8 | Giant foxtail plant response rating [10, 25]: 9 | Wheat plant response rating [11, 21]: 3 | Plant response rating, Wheat ([11]; Preemergence, Rate 62 g/ha): 0 | Plant response rating, Wheat ([11]; Preemergence, Rate 125 g/ha): 2 | Wheat plant response rating [11, 22]: 3 | Wheat plant response rating [11, 23]: 6 | Wheat plant response rating [11, 24]: 0 | Wheat plant response rating [11, 25]: 0 | B. signalgrass plant response rating ([12]; Postemergence, Rate 250 g/ha, scale 0 to 10, 0 no effect, 10 complete control): 2 | B. signalgrass plant response rating [12, 26]: 6 | Plant response rating, B. signalgrass [12, 27]: 3 | Plant response rating, B. signalgrass [12, 28]: 7 | B. signalgrass plant response rating [12, 22]: 7 | B. signalgrass plant response rating [12, 23]: 10 | B. signalgrass plant response rating [12, 24]: 0 | B. signalgrass plant response rating [12, 25]: 2 | Plant response rating, Rice (0 to 10 scale, 0 is no effect, 10 is complete control) [13, 17]: 0 | Rice plant response rating (0 to 10 scale, 0 is no effect, 10 is complete control) [13, 18]: 0 | Rice plant response rating [13, 19]: 0 | Rice plant response rating [13, 20]: 0 | Morningglory plant response rating [14, 21]: 10 | Plant response rating, Morningglory ([14]; Preemergence, Rate 62 g/ha): 0 | Plant response rating, Morningglory ([14]; Preemergence, Rate 125 g/ha): 0 | Morningglory plant response rating [14, 22]: 0 | Morningglory plant response rating [14, 23]: 1 | Morningglory plant response rating [14, 24]: 9 | Morningglory plant response rating [14, 25]: 9 | Redroot pigweed plant response rating [15, 21]: 2 | Plant response rating, Redroot pigweed ([15]; Preemergence, Rate 62 g/ha): 5 | Plant response rating, Redroot pigweed ([15]; Preemergence, Rate 125 g/ha): 10 | Redroot pigweed plant response rating [15, 22]: 10 | Redroot pigweed plant response rating [15, 23]: 10 | Redroot pigweed plant response rating [15, 24]: 0 | Redroot pigweed plant response rating [15, 25]: 0 | Velvetleaf plant response rating [16, 21]: 0 | Plant response rating, Velvetleaf ([16]; Preemergence, Rate 62 g/ha): 4 | Plant response rating, Velvetleaf ([16]; Preemergence, Rate 125 g/ha): 5 | Velvetleaf plant response rating [16, 22]: 6 | Velvetleaf plant response rating [16, 23]: 7 | Velvetleaf plant response rating [16, 24]: 0 | Velvetleaf plant response rating [16, 25]: 0
